According to US20050209278A1, “Piperidinyl- and piperazinyl-sulfonylmethyl hydroxamic acids and their use as protease inhibitors” (priority 2002, published 2005):
Like-named read-outs stand apart in the source and are kept apart here.

What was measured:
MMP-13 = molecular target: T1, MMP-13 (Homo sapiens, UniProt P45452); test: In vitro MMP inhibition, Ki determination (fluorogenic substrate II); format: biochemical; conditions: read-out: MMP-13 Ki
T1 construct: made in house; host or cells: baculovirus / insect cells
How it was run: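 Room-temperature, 1 h incubation of APMA-activated recombinant human MMP-13 with 4 μM quenched substrate II (cleaved at Gly-Leu) in pH 7.5 Tris/NaCl/CaCl2 buffer. Inhibition appears as a slowed rise in 330/420 nm fluorescence. Single low enzyme and substrate levels were used for Ki.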

MMP-14 = molecular target: T2, MMP-14 (Homo sapiens, UniProt P50281); test: as above; format: biochemical; conditions: read-out: MMP-14 Ki
T2 construct: The catalytic domain enzyme was expressed in E. coli inclusion bodies, solubilized in urea; made in house
How it was run: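 Apparent Ki was fitted with Morrison's equation from reaction rates at a single low enzyme level. Enzyme was APMA- or trypsin-activated refolded MMP-14 catalytic domain, buffered at pH 7.5 with 10 mM CaCl2.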

SMILES | Ki (MMP-13; value outside parentheses) | Ki (MMP-14; value outside parentheses) | Ki (MMP-13; value not in parenthesis) | Ki (MMP-14; value not in parenthesis)
CCCCOc1ccc(N2CCN(S(=O)(=O)C3(C(=O)NO)CCN(C(=O)N(C)C)CC3)CC2)cc1 [Example 254] | 0.1 nM | 856 nM | – | –
CCCCOc1ccc(N2CCN(S(=O)(=O)C3(C(=O)NO)CCN(C(=O)c4ccccn4)CC3)CC2)cc1 [Example 277] | 0.23 nM | 3020 nM | – | –
CCCCOc1ccc(N2CCN(S(=O)(=O)C3(C(=O)NO)CCN(c4ccc(C)cc4)CC3)CC2)cc1F [Example 296] | 9.22 nM | – | – | –
CCCCc1ccc(N2CCN(S(=O)(=O)C3(C(=O)NO)CCN(CCOC)CC3)CC2)nc1 [Example 270] | 0.339 nM | 1110 nM | – | –
CCCCOc1ccc(N2CCN(S(=O)(=O)C3(C(=O)NO)CCNCC3)CC2)cc1F [Example 286] | 5.97 nM | > 10000 nM | – | –
CCCCOc1ccc(N2CCN(S(=O)(=O)C3(C(=O)NO)CCN(C(=O)c4cccnc4)CC3)CC2)cc1 [Example 266] | 0.308 nM | 2390 nM | – | –
CCCCOc1ccc(N2CCN(S(=O)(=O)C3(C(=O)NO)CCN(c4ccccc4)CC3)CC2)cc1 [Example 264] | 0.048 nM | > 10000 nM | – | –
CCCCOc1ccc(N2CCN(S(=O)(=O)C3(C(=O)NO)CCN(C(N)=O)CC3)CC2)cc1 [Example 253] | 0.357 nM | 1930 nM | – | –
CCCCOc1ccc(N2CCN(S(=O)(=O)C3(C(=O)NO)CCN(C=O)CC3)CC2)cc1 [Example 269] | 0.25 nM | 1200 nM | – | –
CCCCOc1ccc(N2CCN(S(=O)(=O)C3(C(=O)NO)CCN(C(=O)CN)CC3)CC2)cc1 [Example 292] | 0.98 nM | 6540 nM | – | –
CC(C)CCOc1ccc(N2CCN(S(=O)(=O)C3(C(=O)NO)CCOCC3)CC2)cc1 [Example 279] | 0.32 nM | 4270 nM | – | –
O=C(NO)C1(S(=O)(=O)N2CCN(c3ccc(OCc4ccccc4)cn3)CC2)CCOCC1 [Example 74] | – | – | 0.06 nM | 454 nM
CS(=O)(=O)c1ccc(N2CCN(S(=O)(=O)C3(C(=O)NO)CCOCC3)CC2)cc1 [Example 300] | 42.7 nM | > 10000 nM | – | –
O=C(NO)C1(S(=O)(=O)N2CCN(c3ccc(COCC(F)(F)F)cc3)CC2)CCOCC1 [Example 72] | – | – | 0.85 nM | 7570 nM
CCCCc1ccc(C2CCN(S(=O)(=O)C3(C(=O)NO)CCOCC3)CC2)nc1 [Example 307] | 0.654 nM | 1290 nM | – | –
CCCCOc1ccc(N2CCN(S(=O)(=O)C3(C(=O)NO)CCN(Cc4cccnc4)CC3)CC2)cc1F [Example 293] | 0.313 nM | 5440 nM | – | –

SMILES | Ki (MMP-13; value outside parentheses) | Ki (MMP-14; value outside parentheses) | Ki (MMP-13; value not in parenthesis) | Ki (MMP-14; value not in parenthesis)
O=C(NO)C1(S(=O)(=O)N2CCN(c3ccc(OCCCCF)cc3)CC2)CCOCC1 [Example 89] | – | – | 0.17 nM | 2800 nM
CCCCOc1ccc(N2CCN(S(=O)(=O)C3(C(=O)NO)CCN(Cc4ccco4)CC3)CC2)cc1 [Example 252] | 0.373 nM | 5180 nM | – | –
COCCN1CCC(C(=O)NO)(S(=O)(=O)N2CCC(c3ccc(CCCC(F)(F)F)cc3)CC2)CC1 [Example 310] | 0.268 nM | 4820 nM | – | –
CCCCOc1ccc(N2CCN(S(=O)(=O)C3(C(=O)NO)CCNCC3)CC2)cc1 [Example 276] | 2.49 nM | > 10000 nM | – | –
CCCCOc1ccc(N2CCN(S(=O)(=O)C3(C(=O)NO)CCN(C(=O)COC)CC3)CC2)cc1 [Example 268] | 0.311 nM | 1390 nM | – | –
CCCCOc1ccc(N2CCN(S(=O)(=O)C3(C(=O)NO)CCN(C(=O)CCCC)CC3)CC2)cc1 [Example 278] | 0.49 nM | 5260 nM | – | –
Cc1cc(N2CCN(S(=O)(=O)C3(C(=O)NO)CCOCC3)CC2)ccc1OC(C)C [Example 299] | 3.04 nM | > 10000 nM | – | –
CCCCOc1ccc(N2CCN(S(=O)(=O)C3(C(=O)NO)CCN(C(C)=O)CC3)CC2)cc1 [Example 282] | 0.27 nM | 1480 nM | – | –
CCCCc1ccc(N2CCN(S(=O)(=O)C3(C(=O)NO)CCN(c4ncccn4)CC3)CC2)nc1 [Example 99] | – | – | 0.3 nM | 225 nM
CCCCOc1ccc(N2CCN(S(=O)(=O)C3(C(=O)NO)CCN(C(=O)C(C)C)CC3)CC2)cc1 [Example 273] | 0.313 nM | 5090 nM | – | –
COCCN1CCC(C(=O)NO)(S(=O)(=O)N2CCC(c3ncc(CC(C)C)s3)CC2)CC1 [Example 311] | 1.56 nM | > 10000 nM | – | –
CCCCOc1ccc(N2CCN(S(=O)(=O)C3(C(=O)NO)CCN(C(=O)C4CC4)CC3)CC2)cc1 [Example 260] | 0.301 nM | 2800 nM | – | –
COCCOc1ccc(N2CCN(S(=O)(=O)C3(C(=O)NO)CCN(C4CC4)CC3)CC2)cc1F [Example 297] | 1.4 nM | – | – | –
CCCCOc1ccc(N2CCN(S(=O)(=O)C3(C(=O)NO)CCN(C(C)(C)C)CC3)CC2)c(F)c1 [Example 84] | – | – | 1.91 nM | > 10000 nM
O=C(NO)C1(S(=O)(=O)N2CCN(c3ccc(COCC(F)(F)C(F)F)cc3)CC2)CCOCC1 [Example 71] | – | – | 0.79 nM | –
